The target in one assay is T1, human TLR7 (Homo sapiens, UniProt Q9NYK1).
T1 construct: host or cells: HEK-Blue hTLR7 (HEK293-derived reporter cells)
T1 sequence (Q9NYK1 27-1049): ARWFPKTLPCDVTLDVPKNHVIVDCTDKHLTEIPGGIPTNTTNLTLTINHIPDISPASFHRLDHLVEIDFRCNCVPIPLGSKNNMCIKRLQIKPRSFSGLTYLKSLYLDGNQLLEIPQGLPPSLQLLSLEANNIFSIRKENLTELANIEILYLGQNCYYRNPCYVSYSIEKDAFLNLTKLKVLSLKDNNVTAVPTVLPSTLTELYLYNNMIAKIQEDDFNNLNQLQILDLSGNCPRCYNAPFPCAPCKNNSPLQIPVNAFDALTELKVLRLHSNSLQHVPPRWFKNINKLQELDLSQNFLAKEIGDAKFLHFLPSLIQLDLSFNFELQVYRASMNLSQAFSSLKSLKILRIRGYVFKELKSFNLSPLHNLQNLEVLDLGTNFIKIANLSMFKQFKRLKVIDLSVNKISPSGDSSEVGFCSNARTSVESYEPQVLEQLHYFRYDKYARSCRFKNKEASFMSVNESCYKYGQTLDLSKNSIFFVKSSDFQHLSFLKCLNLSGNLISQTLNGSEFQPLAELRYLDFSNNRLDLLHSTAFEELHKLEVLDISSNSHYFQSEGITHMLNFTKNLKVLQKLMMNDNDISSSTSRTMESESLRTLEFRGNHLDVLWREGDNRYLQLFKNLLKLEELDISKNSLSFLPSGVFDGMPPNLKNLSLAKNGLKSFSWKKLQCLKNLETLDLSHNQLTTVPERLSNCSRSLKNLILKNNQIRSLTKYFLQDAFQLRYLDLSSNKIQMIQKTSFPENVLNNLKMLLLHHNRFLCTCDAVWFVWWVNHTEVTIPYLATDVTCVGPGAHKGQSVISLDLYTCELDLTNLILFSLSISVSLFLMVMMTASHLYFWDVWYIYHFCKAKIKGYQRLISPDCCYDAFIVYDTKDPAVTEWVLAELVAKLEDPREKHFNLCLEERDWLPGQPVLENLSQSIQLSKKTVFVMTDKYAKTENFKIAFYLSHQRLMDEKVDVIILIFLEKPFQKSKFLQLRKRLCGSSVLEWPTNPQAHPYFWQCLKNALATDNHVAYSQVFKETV
In words: HEK-Blue hTLR7 SEAP reporter gene agonist assay. The format is cell-based. The conditions noted are these: HEK-Blue hTLR7 cells, 16 to 22 hours incubation. As to the method:
(§1) HEK-Blue™ cells that stably express human TLR7 or TLR8 are used to evaluate the agonistic activity of the compounds on TLR7 or TLR8, which is determined by the induction of the expression of SEAP reporter gene under the control of minimum IFN-β promoter fusion to 5×NF-κB and AP-1 binding sites. The assay is conducted as below:
(§2) HEK-Blue™ hTLR7 (Invivogen, 80,000 cells per well) or HEK-Blue™ hTLR8 (Invivogen, 60,000 cells per well) were added to the 96-well cell culture plate, followed by adding of the test compound. The final concentration of the test compound in the medium ranged from […], and was incubated for 16 to 22 hours. According to the manufacturer's instructions, the HEK-Blue assay reagent Quanti-blue (Invivogen) was used to measure SEAP levels in cell media. Optical density at 650 nm (OD650) was measured by Neo2 multifunction plate reader (Bio-tek). The half effective concentration (EC50) was calculated using GraphPad Prism.

Another assay has as its target T2, human TLR8 (Homo sapiens, UniProt Q9NR97).
T2 construct: host or cells: HEK-Blue hTLR8 (HEK293-derived reporter cells)
T2 sequence (Q9NR97 27-1041): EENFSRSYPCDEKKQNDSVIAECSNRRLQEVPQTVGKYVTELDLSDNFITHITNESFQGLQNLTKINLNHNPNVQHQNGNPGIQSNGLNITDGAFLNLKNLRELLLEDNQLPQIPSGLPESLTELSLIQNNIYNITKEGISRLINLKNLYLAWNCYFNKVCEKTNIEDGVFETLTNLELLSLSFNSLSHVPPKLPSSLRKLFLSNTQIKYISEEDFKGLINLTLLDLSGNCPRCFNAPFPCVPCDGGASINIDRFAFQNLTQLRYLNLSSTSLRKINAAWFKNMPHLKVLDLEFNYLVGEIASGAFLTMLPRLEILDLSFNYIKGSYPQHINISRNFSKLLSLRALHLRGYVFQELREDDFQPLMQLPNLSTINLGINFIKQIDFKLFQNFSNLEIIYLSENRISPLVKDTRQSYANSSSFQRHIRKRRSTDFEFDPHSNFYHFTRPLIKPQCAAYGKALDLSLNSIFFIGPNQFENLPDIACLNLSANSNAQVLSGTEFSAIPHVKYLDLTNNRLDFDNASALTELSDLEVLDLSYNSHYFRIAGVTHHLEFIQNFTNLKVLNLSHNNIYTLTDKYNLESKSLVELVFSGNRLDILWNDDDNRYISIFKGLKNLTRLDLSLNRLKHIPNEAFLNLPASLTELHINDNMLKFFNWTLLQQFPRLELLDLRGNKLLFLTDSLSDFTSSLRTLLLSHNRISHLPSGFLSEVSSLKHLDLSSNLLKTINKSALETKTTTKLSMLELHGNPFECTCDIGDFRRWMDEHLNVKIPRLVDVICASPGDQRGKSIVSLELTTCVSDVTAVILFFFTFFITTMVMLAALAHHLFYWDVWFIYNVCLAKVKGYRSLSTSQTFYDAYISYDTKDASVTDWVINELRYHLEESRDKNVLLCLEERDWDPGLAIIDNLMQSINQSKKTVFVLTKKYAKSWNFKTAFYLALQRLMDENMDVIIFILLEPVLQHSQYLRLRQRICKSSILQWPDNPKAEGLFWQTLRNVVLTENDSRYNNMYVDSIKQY
In words: HEK-Blue hTLR8 SEAP reporter gene agonist assay. It counts as cell-based. As to conditions: HEK-Blue hTLR8 cells, 16 to 22 hours incubation. As for the experimental part:
as §1, §2
(A reporter such as luciferase makes a cellular process visible.)

What is called EC50 is the concentration at which the effect is half-maximal. A lower EC50 goes with higher potency in that assay. For `CCC[C@@H](CCO)Nc1nc(N)nc2ccn(Cc3ccc(CN4CC5(COC5)C4)cc3)c(=O)c12` [Compound I-142, (S)-6-(4-((2-oxa-6-azaspiro[3.3]heptan-6-yl)methyl)benzyl)-2-amino-4-((1-hydroxyhexan-3-yl)amino)pyrido[4,3-d]pyrimidin-5(6H)-one], the EC50 on human TLR7 was 70 nM; at human TLR8 it was 40 nM. For `CCC[C@@H](C)Nc1nc(N)nc2ccn(Cc3ccc(CNC)cc3OC)c(=O)c12` [Compound I-198, (R)-2-amino-6-(2-methoxy-4-((methylamino)methyl)benzyl)-4-(pentan-2-ylamino)pyrido[4,3-d]pyrimidin-5(6H)-one] the same measures were 100 nM and 5 nM. As to `CCC[C@@H](CO)Nc1nc(N)nc2ccn(Cc3ccc(CN4CCCC4)cc3)c(=O)c12` [Compound I-127, (S)-2-amino-4-((1-hydroxypentan-2-yl)amino)-6-(4-(pyrrolidin-1-ylmethyl)benzyl)pyrido[4,3-d]pyrimidin-5(6H)-one], the EC50 at human TLR7 was determined as 44 nM; on human TLR8, 3 nM. For `CCCC(CCO)Nc1nc(N)nc2ccn(Cc3ccc(CN4CCCC4)cc3)c(=O)c12` (centres unmarked) [Compound I-95, 2-amino-4-((1-hydroxyhexan-3-yl)amino)-6-(4-(pyrrolidin-1-ylmethyl)benzyl)pyrido[4,3-d]pyrimidin-5(6H)-one] the same measures were 65 nM and 46 nM. Consider `CCC[C@@H](CC)Nc1nc(N)nc2ccn(Cc3ccc(C(=O)N4CCNCC4)cc3)c(=O)c12` [Compound I-137, (R)-2-amino-4-(hexan-3-ylamino)-6-(4-(piperazine-1-carbonyl)benzyl)pyrido[4,3-d]pyrimidin-5(6H)-one], for which it took 65 nM to reach a half-maximal effect at human TLR7 (EC50). That is a double-digit nanomolar value. On human TLR7, `CCCC(CCC)Nc1nc(N)nc2ccn(Cc3ccc(C(=O)N4CCN(C)CC4)cc3OC)c(=O)c12` [Compound I-133, 2-amino-4-(heptan-4-ylamino)-6-(2-methoxy-4-(4-methylpiperazine-1-carbonyl)benzyl)pyrido[4,3-d]pyrimidin-5(6H)-one] displayed an EC50 of 70 nM.

Turning to `CCCCNc1nc(N)nc2ccn(Cc3ccc(CN4CCCC4)nc3OC)c(=O)c12` [Compound I-64, 2-amino-4-(butylamino)-6-((2-methoxy-6-(pyrrolidin-1-ylmethyl)pyridin-3-yl)methyl)pyrido[4,3-d]pyrimidin-5(6H)-one], on human TLR7, the EC50 was 67 nM. This EC50 and that of the compound before are within 1.5-fold of each other. On the same count and under the same terms, as for `CCCCNc1nc(N)nc2ccn(Cc3ccc(C(=O)N4CCN(C)CC4)cc3)c(=O)c12` [Compound I-63, 2-amino-4-(butylamino)-6-(4-(4-methylpiperazine-1-carbonyl)benzyl)pyrido[4,3-d]pyrimidin-5(6H)-one], the figure is 82 nM. For `CCCCNc1nc(N)nc2ccn(Cc3ccc(CN4CCCC4)c(F)c3)c(=O)c12` [Compound I-27, 2-amino-4-(butylamino)-6-(3-fluoro-4-(pyrrolidin-1-ylmethyl)benzyl)pyrido[4,3-d]pyrimidin-5(6H)-one], the response on human TLR8 was half-maximal at 95 nM (EC50). Consider `CCCCOC(=O)OC[C@H](CCC)Nc1nc(N)nc2ccn(Cc3ccc(CN4CCN(C)CC4)cc3OC)c(=O)c12` [Compound I-226], for which the EC50 at human TLR8 is 73 nM. Turning to `CCCCNc1nc(N)nc2ccn(Cc3ccc(C(=O)N4CCN(C)CC4)cc3OC)c(=O)c12` [Compound I-73, 2-amino-4-(butylamino)-6-(2-methoxy-4-(4-methylpiperazine-1-carbonyl)benzyl)pyrido[4,3-d]pyrimidin-5(6H1)-one], on human TLR7, the midpoint of the response, the EC50, lay at 41 nM. That is a double-digit nanomolar value. `CCCC(CCC)Nc1nc(N)nc2ccn(Cc3ccc(C(=O)N4CCN(CCO)CC4)cc3OC)c(=O)c12` [Compound I-136, 2-amino-4-(heptan-4-ylamino)-6-(4-(4-(2-hydroxyethyl)piperazine-1-carbonyl)-2-methoxybenzyl)pyrido[4,3-d]pyrimidin-5(6H)-one]: on human TLR7, the EC50 is 70 nM. This EC50 lies about 1.7-fold higher than the previous one. On human TLR7, `CCCC(CCC)Nc1nc(N)nc2ccn(Cc3ccc(C(=O)N4CCN(C)CC4)cc3)c(=O)c12` [Compound I-114, 2-amino-4-(heptan-4-ylamino)-6-(4-(4-methylpiperazine-1-carbonyl)benzyl)pyrido[4,3-d]pyrimidin-5(6H)-one] returned an EC50 of 86 nM.
